From article PMC5862576, “Mitochondrial fission as a driver of stemness in tumor cells: mDIVI1 inhibits mitochondrial function, cell migration and cancer stem cell (CSC) signalling” (Oncotarget, 2018)

What was measured:
MCF7 cells [1] = assay: Mitochondrial mass quantification (MitoTracker Deep Red, flow cytometry); type: cell-based, Human; settings: 50 µM, 5 days, vs vehicle
Experimental: To measure mitochondrial mass, cells were stained with MitoTracker Deep Red (M22426, Invitrogen). Briefly, 2 × 10^5 MCF7 cells per well were seeded in 6-well plates. When cells were attached, mDIVI1 and vehicle treatments were added for 2 days or 5 days in triplicate. Cells were then incubated for 15 min at 37° C with the 10 nM Mitotracker Deep Red probe diluted in PBS ([…], Sigma). All subsequent steps were performed in the dark. Cells were washed in PBS, harvested, and re-suspended in PBS. Mitotracker signal was quantified as mean fluorescent intensity of the viable cell population in a Fortessa flow cytometer (BD Bioscience). Results were analyzed using FlowJo software.

A375 melanoma = assay: Tumorsphere formation assay, A375; type: cell-based; settings: five days
Experimental: (§1) A single cell suspension was prepared using enzymatic (1× Trypsin-EDTA, T3924, Sigma Aldrich), and manual disaggregation (25 gauge needle). Cells were plated at a density of 5000 cells/well in tumorsphere media (DMEM-F12/B27/EGF (20ng/ml)/Pen-Strep) in non-adherent conditions, in 6-well plates coated with (2-hydroxyethylmethacrylate) (poly-HEMA, P3932, Sigma) in the presence of mDIVI1 or vehicle. After 5 days of culture in a humidified incubator at 37° C, tumorspheres bigger than 50 μm were counted using an eye piece graticule.

E-cadherin = assay: Western blotting; type: cell-based, Human; settings: MCF7 cells
Experimental: At the end of the treatment, cells in suspension were spun down and lysed and attached cells were directly lysed in RIPA lysis buffer (R0278, Sigma) containing proteinase inhibitors (05 892 970 001, Roche) and kept at 4° C for 20 minutes with rotation. Lysates were cleared by centrifugation for 10 minutes at 10,000 xg and supernatants were collected. […] Bound antibodies were detected using a horseradish peroxidase-conjugated secondary antibody (ab6789 and ab6721, Abcam) and signal was obtained using Supersignal West Pico chemiluminiscent substrate (34087, ThermoScientific). Pictures were taken in a ChemiDoc XRS with Image Lab Software (BioRad).

MCF7 cells [2] = assay: Total ROS (CM-H2DCFDA, flow cytometry); type: cell-based, Human; settings: 24, 48 hours or 5 days
Experimental: (§2) For both assays, 2 × 10^5 MCF7 cells were seeded in 35 mm plates. When cells were attached, either vehicle or mDIVI1 were added to the cells for 24, 48 hours or 5 days in triplicate. Reactive oxygen species (ROS) production was measured using CM-H2DCFDA (C6827, Invitrogen). Briefly, cells were incubated for 20 minutes at 37° C with 1 µM CM-H2DCFDA diluted in PBS and then placed in complete media for 20 minutes at 37° C in the dark, to render the dye fluorescent, according to the manufacturer. Mitochondrial superoxide was measured using MitoSOX Red Mitochondrial Superoxide Indicator (M36008, ThermoFisher Scientific). Briefly, cells were incubated for 10 minutes at 37° C in the dark with 5 µM MitoSOX diluted in PBS, according to the manufacturer. ROS signal and MitoSOX signal was quantified as mean fluorescent intensity of the viable cell population in a Fortessa flow cytometer (BD Bioscience). Results were analysed using FlowJo software.

MCF7 cells [3] = assay: Mitochondrial superoxide (MitoSOX, flow cytometry); type: cell-based, Human; settings: both concentrations; 24 hour, 2 and 5 days; vs vehicle
Experimental: as §2

MCF7 cells [4] = assay: Tumorsphere formation assay, MCF7; type: cell-based, Human; settings: five days, vs vehicle
Experimental: as §1

Wnt signalling = assay: Luciferase reporter assay MCF7-GFP-TCF/LEF(luc); type: cell-based, Human; settings: 50 µM, 2 and 5 days
Experimental: (§3) The Cignal Lenti reporter assay (luc) was used to monitor the activity of several signalling pathways in MCF7-GFP cells as explained previously. Luciferase Assay System (E1501, Promega) was performed according to manufacturer’s instructions. 1 × 10^4 MCF7 were seeded in black-walled 96 well plates. When cells were attached, drug treatments were added for 18, 48 hours and 5 days. After treatment, Luciferase Assay was performed according to manufacturer’s instructions and light signal was acquired in the Xenogen VivoVision IVIS Lumina. Results were normalized by SRB staining of cells grown in 96-well plates in parallel.
(§4) SRB (S9012, Sigma) measures total biomass by staining cellular proteins. After treatment, cells were fixed in 10% tricloroacetic acid (T9159, Sigma) for 1 hour at 4° C, stained with SRB (S9012, Sigma) for 15 minutes, and washed 3 times with 1% acetic acid (27225, Sigma). The incorporated die was solubilized with 10 mM Tris Base, pH 8.8 (T1503, Sigma). Absorbance was spectrophotometrically measured at 562 nm in a FluoStar Omega plate reader (BMG Labtech). Background measurements were subtracted from all values.

MCF7 cells [5] = assay: Extracellular flux analysis (ECAR and OCR, Seahorse XF96); type: cell-based, Human; settings: 48 hours
Notch signalling = assay: Luciferase reporter assay MCF7-GFP-Rbp/Jk(luc); type: cell-based, Human; settings: 50 µM, 2 and 5 days
Experimental: as §3, §4

COc1cc(-n2c(=S)[nH]c3ccccc3c2=O)c(Cl)cc1Cl [mDIVI1, 3-(2,4-Dichloro-5-methoxyphenyl) 2,3-dihydro 2-thioxo-4(1H) quinazolinone]
Mitotracker Deep Red mean fluorescence intensity (mitochondrial mass) (MCF7 cells [1]): significantly higher | decrease of A375 tumorsphere forming capacity (A375 melanoma; 10 µM): over 35% | decrease of A375 tumorsphere forming capacity (A375 melanoma; 50 µM): over 90% | E-cadherin expression (immunoblot) (E-cadherin): reduction in the expression | general oxidative stress levels (total ROS) (MCF7 cells [2]): did not change | mitochondrial superoxide production (MitoSOX) (MCF7 cells [3]): significantly increased | decrease of MCF7 tumorsphere number (MCF7 cells [4]; 10 µM): 50% | decrease of MCF7 tumorsphere number (MCF7 cells [4]; 50 µM): 80% | decrease of MCF7 tumorsphere number (MCF7 cells [4]; 100 µM): 95% | Wnt/TCF pathway luciferase activity (Wnt signalling): strikingly caused the inhibition | basal glycolysis (ECAR) (MCF7 cells [5]): did not have a significant effect | oxygen consumption linked to ATP production (MCF7 cells [5]): significantly reduced | oxygen consumption linked to basal respiration (MCF7 cells [5]): significantly reduced | spare respiratory capacity (MCF7 cells [5]; all mDIVI1 concentrations): slightly increased | OCR/ECAR ratio (MCF7 cells [5]; vs vehicle): decreased dose-dependently | oxygen consumption linked to maximal respiration (MCF7 cells [5]; to a lesser extent, at higher concentrations): significantly reduced | glycolytic capacity (ECAR) (MCF7 cells [5]; ≥10 µM): reduced | glycolytic reserve (ECAR) (MCF7 cells [5]; ≥10 µM): reduced | Notch/Rbp pathway luciferase activity (Notch signalling): strikingly caused the inhibition
